Data: patent publication US11802120B2, “Fused cyclic urea derivatives as CRHR2 antagonist” (RaQualia Pharma Inc., priority 2018, dated 2023)

Molecular target: T1, human CRHR2-alpha (Homo sapiens, UniProt Q13324)
T1 sequence (Q13324 1-411): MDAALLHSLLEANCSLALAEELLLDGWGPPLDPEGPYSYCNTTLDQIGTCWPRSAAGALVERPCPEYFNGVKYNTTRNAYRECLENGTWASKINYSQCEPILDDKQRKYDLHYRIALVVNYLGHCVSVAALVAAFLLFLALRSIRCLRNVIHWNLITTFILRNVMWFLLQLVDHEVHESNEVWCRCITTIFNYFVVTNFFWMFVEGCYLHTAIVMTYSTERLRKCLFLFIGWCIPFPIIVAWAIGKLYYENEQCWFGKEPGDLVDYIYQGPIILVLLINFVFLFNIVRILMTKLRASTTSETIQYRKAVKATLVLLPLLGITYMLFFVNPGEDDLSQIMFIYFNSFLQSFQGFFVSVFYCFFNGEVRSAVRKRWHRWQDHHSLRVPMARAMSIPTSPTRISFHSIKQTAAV
Assay: cAMP functional assay for human CRHR2 (LANCE Ultra cAMP, TR-FRET)
Assay type: cell-based
Details: CHO-K1 cells expressing human CRHR2-alpha, agonist human urocortin2 at EC80, cAMP; read-out: IC50 against CRHR2
Outline: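 Inhibition of agonist-driven cAMP was assessed in recombinant CHO-K1 cells at 25° C, using 30 min compound pretreatment and 30 min stimulation with EC80 human urocortin2 (CRHR2) or CRF (CRHR1). IC50 came from dose-response fitting.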

IC50	Compound
< 0.3 µM	Cc1ncc(Cl)cc1C(=O)N[C@H]1CC[C@H](Cn2c(=O)n(-c3ccc4ccncc4c3)c3ccccc32)CC1 [Example 396, 5-chloro-N-((1r,4r)-4-((3-(isoquinolin-7-yl)-2-oxo-2,3-dihydro-1H-benzo[d]imidazol-1-yl)methyl)cyclohexyl)-2-methyl-nicotinamide]
< 0.3 µM	Cc1ncc(Cl)cc1C(=O)N[C@H]1CC[C@H](Cn2c(=O)n(-c3ccc4c(Cl)nn(C)c4c3)c3ccccc32)CC1 [Example 208, 5-chloro-N-((1r,4r)-4-((3-(3-chloro-1-methyl-1H-indazol-6-yl)-2-oxo-2,3-dihydro-1H-benzo[d]imidazol-1-yl)methyl)cyclohexyl)-2-methylnico-tinamide]
< 0.3 µM	O=C(N[C@H]1CC[C@H](Cn2c(=O)n(-c3ccc(N4CCCC4=O)nc3)c3ccccc32)CC1)c1cc(Cl)cnc1C(F)F [Example 498, 5-chloro-2-(difluoromethyl)-N-((1r,4r)-4-((2-oxo-3-(6-(2-oxopyrrolidin-1-yl)pyridin-3-yl)-2,3-dihydro-1H-benzo[d]imidazol-1-yl)methyl)cyclohexyl)nicotinamide]
< 0.3 µM	O=C(N[C@H]1CC[C@H](Cn2c(=O)n(-c3ccc(N4CCCCC4=O)nc3)c3ccccc32)CC1)c1cc(Cl)cnc1C(F)F [Example 509, 5-chloro-2-(difluoromethyl)-N-((1r,4r)-4-((2-oxo-3-(6-(2-oxopiperidin-1-yl)pyridin-3-yl)-2,3-dihydro-1H-benzo[d]imidazol-1-yl)methyl)cyclohexyl)nicotinamide]
< 0.3 µM	Cc1ncc(Cl)cc1C(=O)N[C@H]1CC[C@H](Cn2c(=O)n(-c3ccnc(-c4cnn(C)c4)c3)c3ccccc32)CC1 [Example 680, 5-chloro-2-methyl-N-((1r,4r)-4-((3-(2-(1-methyl-1H-pyrazol-4-yl)pyridin-4-yl)-2-oxo-2,3-dihydro-1H-benzo[d]imidazol-1-yl)methyl)cyclohexyl) nicotinamide]
< 0.3 µM	O=C(N[C@H]1CC[C@H](Cn2c(=O)n(-c3ccc(N4CCOCC4=O)nc3)c3ccccc32)CC1)c1cc(Cl)cnc1C(F)F [Example 505, 5-chloro-2-(difluoromethyl)-N-((1r,4r)-4-((2-oxo-3-(6-(3-oxomorpholino)pyridin-3-yl)-2,3-dihydro-1H-benzo[d]imidazol-1-yl)methyl)cyclo-hexyl)nicotinamide]
< 0.3 µM	Cc1ncc(Cl)cc1C(=O)N[C@H]1CC[C@H](Cn2c(=O)n(-c3ccc(N4CCC(O)CC4)nc3)c3ccccc32)CC1 [Example 96, 5-chloro-N-((1r,4r)-4-((3-(6-(4-hydroxypiperidin-1-yl)pyridin-3-yl)-2-oxo-2,3-dihydro-1H-benzo[d]imidazol-1-yl)methyl)cyclohexyl)-2-methylnicotinamide]
< 0.3 µM	Cc1nc2cc(-n3c(=O)n(C[C@H]4CC[C@H](NC(=O)c5cc(Cl)cnc5C)CC4)c4ccccc43)ccc2s1 [Example 645, 5-chloro-2-methyl-N-((1r,4r)-4-((3-(2-methylbenzo[d]thiazol-5-yl)-2-oxo-2,3-dihydro-1H-benzo[d]imidazol-1-yl)methyl)cyclohexyl) nicotinamide]
< 0.3 µM	Cc1ncc(Cl)cc1C(=O)N[C@H]1CC[C@H](Cn2c(=O)n(-c3ccc4ncoc4c3)c3ccccc32)CC1 [Example 153, N-((1r,4r)-4-((3-(benzo[d]oxazol-6-yl)-2-oxo-2,3-dihydro-1H-benzo[d]imidazol-1-yl)methyl)cyclo-hexyl)-5-chloro-2-methylnicotinamide]
< 0.3 µM	Cc1ncc(Cl)cc1C(=O)N[C@H]1CC[C@H](Cn2c(=O)n(-c3cc(Br)ccc3C#N)c3ccccc32)CC1 [Example 307, N-((1r,4r)-4-((3-(5-bromo-2-cyanophenyl)-2-oxo-2,3-dihydro-1H-benzo[d]imidazol-1-yl)methyl)cyclohexyl)-5-chloro-2-methylnicotinamide]
